Measured values reported in US10696638B2, “Compounds for inhibiting AGC kinase and pharmaceutical compositions comprising the same” (Industrial Technology Research Institute, priority 2017, dated 2020).

These compounds were tested against ROCK2 (Homo sapiens (Human), UniProt O75116) (assay: Rho-kinase inhibition ELISA (ROCK active-II, MYPT1 substrate)). Settings: Table 1; classes given as pIC50; ATP 250 μM; read-out: ROCK2 IC50.
Format: biochemical
Description: To measure Rho-kinase inhibition, IC50 values were determined according to the following ELISA protocol:
ROCK Substrate Coated Plate (Part No 241601): One strip well 96-well plate pre-coated with recombinant MYPT1.
Buffer: 25 mM Tris, pH 7.5, 10 mM MgCl2, 5 mM Glycerol-2-Phosphate, 0.1 mM Na3VO4; 1% DMSO; 2.5 mM DTT; (Enzyme: ROCK active-II) (Cell Biolabs, Catalog #STA-406, Part No. 241505) 0.1 ng/μl.
ATP Solution (Part No. 241604): 100 mM ATP. Final concentration of ATP in reaction mixture: 250 μM.
Secondary Antibody, HRP Conjugate (Part No. 231003).
Biotinylated substrate, diluted to 0.25 μM with buffer described above (without ATP).
1. Purified kinase or cell lysate sample can be used directly in the kinase assay or further diluted with 1× Kinase Buffer. Each sample should be assayed in duplicate.
2. Add 90 μL of the diluted active ROCK-II positive control or unknown ROCK samples to the wells of the substrate plate.
3. Initiate the kinase reaction by adding 10 μL of the 10× Kinase Reaction Buffer containing DTT and ATP. Mix well.
4. Cover with a plate cover and incubate the wells at 30° C. for 30-60 minutes with gentle agitation.
5. Stop kinase reaction by flicking out the content or by adding 50 μL of 0.5M EDTA, pH 8.0, to each well.
6. Remove the plate cover and empty wells. Wash microwell strips 3 times with 250 μL 1× Wash Buffer per well with thorough aspiration between each wash. After the last wash, empty wells and tap microwell strips on absorbent pad or paper towel to remove excess 1× Wash Buffer.
7. Add 100 μL of the diluted anti-phospho-MYPT1 (Thr696) antibody to each well.
8. Cover with the plate cover and incubate at room temperature for 1 hour on an orbital shaker.
9. Remove the plate cover and empty wells. Wash the strip wells 3 times according to step 6 above.
10. Add 100 μL of the diluted HRP-conjugated secondary antibody to each well.
11. Cover with the plate cover and incubate at room temperature for 1 hour on an orbital shaker.
12. Remove the plate cover and empty wells. Wash microwell strips 3 times according to step 6 above. Proceed immediately to the next step.
13. Warm Substrate Solution to room temperature. Add 100 μL of Substrate Solution to each well, including the blank wells. Incubate at room temperature for 5-20 minutes on an orbital shaker.
14. Stop the enzyme reaction by adding 100 μL of Stop Solution into each well, including the blank wells. Results should be read immediately (color will fade over time).
15. Read absorbance of each microwell on a spectrophotometer using 450 nm as the primary wave length.
The given activity (shown in Table 1 and Table 2) is denoted as the negative logarithm of the IC50 (pIC50) as follows: […]

Chain of ROCK2 (O75116 whole entry, species assumed): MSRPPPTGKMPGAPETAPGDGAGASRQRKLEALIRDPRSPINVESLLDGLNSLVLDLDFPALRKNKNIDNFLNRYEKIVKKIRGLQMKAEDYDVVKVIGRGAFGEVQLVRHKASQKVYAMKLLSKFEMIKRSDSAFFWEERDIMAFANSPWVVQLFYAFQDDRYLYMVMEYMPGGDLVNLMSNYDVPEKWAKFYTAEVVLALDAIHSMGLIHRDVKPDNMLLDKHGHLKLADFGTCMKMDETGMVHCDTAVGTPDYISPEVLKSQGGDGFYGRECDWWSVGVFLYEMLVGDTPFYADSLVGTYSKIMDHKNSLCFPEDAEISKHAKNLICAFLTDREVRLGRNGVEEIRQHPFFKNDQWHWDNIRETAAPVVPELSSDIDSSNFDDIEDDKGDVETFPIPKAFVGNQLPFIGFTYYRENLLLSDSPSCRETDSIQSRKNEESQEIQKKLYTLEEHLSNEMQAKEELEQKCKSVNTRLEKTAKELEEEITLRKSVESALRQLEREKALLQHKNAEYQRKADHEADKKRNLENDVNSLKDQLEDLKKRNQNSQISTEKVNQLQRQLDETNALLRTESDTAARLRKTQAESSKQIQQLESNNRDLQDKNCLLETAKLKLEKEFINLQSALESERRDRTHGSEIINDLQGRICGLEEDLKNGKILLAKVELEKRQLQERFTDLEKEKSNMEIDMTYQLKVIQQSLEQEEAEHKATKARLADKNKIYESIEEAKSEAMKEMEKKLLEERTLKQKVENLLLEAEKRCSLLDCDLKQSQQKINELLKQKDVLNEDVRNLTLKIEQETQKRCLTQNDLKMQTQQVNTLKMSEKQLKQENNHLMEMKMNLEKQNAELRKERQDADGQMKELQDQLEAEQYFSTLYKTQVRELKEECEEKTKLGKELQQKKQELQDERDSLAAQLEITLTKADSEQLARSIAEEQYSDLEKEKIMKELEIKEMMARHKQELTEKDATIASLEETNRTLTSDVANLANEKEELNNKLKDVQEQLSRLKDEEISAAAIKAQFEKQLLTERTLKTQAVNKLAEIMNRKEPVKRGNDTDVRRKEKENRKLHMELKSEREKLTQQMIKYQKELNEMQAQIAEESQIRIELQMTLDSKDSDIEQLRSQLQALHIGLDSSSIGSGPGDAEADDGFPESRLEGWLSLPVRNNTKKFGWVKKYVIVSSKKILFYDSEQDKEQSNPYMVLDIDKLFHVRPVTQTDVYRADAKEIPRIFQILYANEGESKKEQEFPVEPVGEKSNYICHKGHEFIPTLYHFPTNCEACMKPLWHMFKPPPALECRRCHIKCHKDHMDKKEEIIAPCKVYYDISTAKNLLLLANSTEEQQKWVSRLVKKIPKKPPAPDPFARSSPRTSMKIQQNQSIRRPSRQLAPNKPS

**Q.** How did the IC50 turn out when `CN(C)CCN(Cc1ccc(Cl)cc1)C(=O)Nc1ccc2cnccc2c1` [compound 1] was run?
**A.** 0.01 to 0.1 µM

**Q.** How did the IC50 turn out when `CN(C)CCN(Cc1ccc(F)cc1)C(=O)Nc1ccc2cnccc2c1` [compound 2] was run?
**A.** 0.01 to 0.1 µM

**Q.** For `COc1cccc(CN(CCN(C)C)C(=O)Nc2ccc3cnccc3c2)c1` [compound 3], which IC50 is on record?
**A.** 0.1 to 1 µM

**Q.** Which IC50 does the source give for `COc1cccc(CN(CCO)C(=O)Nc2ccc3cnccc3c2)c1` [compound 4] here?
**A.** 0.1 to 1 µM

**Q.** For `O=C(Nc1ccc2cnccc2c1)N[C@@H](CO)c1ccccc1` [compound 6], which IC50 is on record?
**A.** 0.01 to 0.1 µM

**Q.** For `CN(C)CCN(Cc1cccc(F)c1)C(=O)Nc1ccc2cnccc2c1` [compound 8], which IC50 is on record?
**A.** 0.1 to 1 µM

Same assay, conditions: Table 2; classes given as pIC50; ATP 250 μM

**Q.** Which “ROCK IC50” value does the source give for `COC(=O)c1ccc(CN(CCN(C)C)C(=O)Nc2cccc3cnccc23)cc1` [compound 10] here?
**A.** + (pIC50<6.0)

**Q.** For `CN(C)CCN(Cc1ccc(CO)cc1)C(=S)Nc1cccc2cnccc12` [compound 12], which “ROCK IC50” value is on record?
**A.** + (pIC50<6.0)

**Q.** For `NCCN(Cc1ccc(O)cc1)C(=O)Nc1ccc2cnccc2c1` [compound 13], which “ROCK IC50” value is on record?
**A.** + (pIC50<6.0)

**Q.** With `CSc1ccc(CN(CCN)C(=O)Nc2ccc3cnccc3c2)cc1` [compound 17] as the compound, how does the “ROCK IC50” value read?
**A.** + (pIC50<6.0)

**Q.** Which “ROCK IC50” value does the source give for `COC(=O)c1ccc(CN(CCN)C(=O)Nc2ccc3cnccc3c2)cc1` [compound 18] here?
**A.** + (pIC50<6.0)

**Q.** With `NCCN(Cc1ccc(F)cc1)C(=O)Nc1cccc2cnccc12` [compound 20] as the compound, how does the “ROCK IC50” value read?
**A.** + (pIC50<6.0)

**Q.** For `NCC(NC(=S)Nc1ccc2cnccc2c1)c1ccccc1` (centres unmarked) [compound 24], which “ROCK IC50” value is on record?
**A.** ++++ (pIC50>8.0)

**Q.** With `NCC(NC(=O)Nc1ccc2cnccc2c1)c1ccc(F)cc1` (centres unmarked) [compound 25] as the compound, how does the “ROCK IC50” value read?
**A.** ++++ (pIC50>8.0)

**Q.** How did the “ROCK IC50” value turn out when `NCC(NC(=S)Nc1ccc2cnccc2c1)c1ccc(F)cc1` (centres unmarked) [compound 26] was run?
**A.** ++++ (pIC50>8.0)

**Q.** `NCCN(Cc1ccc(Cl)cc1)C(=S)Nc1ccc2cnccc2c1` [compound 31] was tested. Which “ROCK IC50” value did it give?
**A.** ++++ (pIC50>8.0)

**Q.** How did the “ROCK IC50” value turn out when `COc1cccc(C(CN)NC(=S)Nc2ccc3cnccc3c2)c1` (centres unmarked) [compound 35] was run?
**A.** ++++ (pIC50>8.0)

**Q.** With `N#C/N=C(/Nc1ccc2cnccc2c1)N(CCN)Cc1ccccc1` [compound 36] as the compound, how does the “ROCK IC50” value read?
**A.** ++++ (pIC50>8.0)

**Q.** `COc1ccc(CN(CCN)/C(=N\C#N)Nc2ccc3cnccc3c2)cc1` [compound 37] was tested. Which “ROCK IC50” value did it give?
**A.** ++++ (pIC50>8.0)

**Q.** `Cl.NCC(NC(=S)Nc1ccc2cnccc2c1)c1cccc2ccccc12` (centres unmarked) [compound 39] was tested. Which “ROCK IC50” value did it give?
**A.** ++++ (pIC50>8.0)

Same assay, conditions: Table 2; classes given as pIC50; ATP 250 μM; read-out: ROCK IC50

**Q.** With `CN(C)CCN(Cc1ccccc1)C(=O)Nc1cccc2cnccc12` [compound 6] as the compound, how does the IC50 read?
**A.** 0.1 to 1 µM

**Q.** How did the IC50 turn out when `CN(C)CCN(Cc1ccc(Cl)cc1)C(=O)Nc1cccc2cnccc12` [compound 7] was run?
**A.** 0.1 to 1 µM

**Q.** For `NCCN(Cc1ccc(F)cc1)C(=O)Nc1ccc2cnccc2c1` [compound 8], which IC50 is on record?
**A.** 0.1 to 1 µM

**Q.** Which IC50 does the source give for `CN(C)CCN(Cc1ccc(F)cc1)C(=S)Nc1cccc2cnccc12` [compound 11] here?
**A.** 0.1 to 1 µM

**Q.** `NCCN(Cc1ccccc1)C(=O)Nc1ccc2cnccc2c1` [compound 14] was tested. Which IC50 did it give?
**A.** 0.1 to 1 µM

**Q.** Which IC50 does the source give for `NCCN(Cc1ccc(Br)cc1)C(=O)Nc1ccc2cnccc2c1` [compound 15] here?
**A.** 0.1 to 1 µM

**Q.** `NCCN(Cc1cccc(F)c1)C(=O)Nc1ccc2cnccc2c1` [compound 16] was tested. Which IC50 did it give?
**A.** 0.1 to 1 µM

**Q.** How did the IC50 turn out when `NCCN(Cc1ccc(F)cc1)C(=S)Nc1ccc2cnccc2c1` [compound 19] was run?
**A.** 0.1 to 1 µM

**Q.** `CC(c1ccc(F)cc1)N(CCN)C(=O)Nc1ccc2cnccc2c1` (centres unmarked) [compound 22] was tested. Which IC50 did it give?
**A.** 0.1 to 1 µM

**Q.** Which IC50 does the source give for `CC(c1ccc(F)cc1)N(CCN)C(=O)Nc1ccc2cnccc2c1` (centres unmarked) [compound 23] here?
**A.** 0.01 to 0.1 µM

**Q.** `NCCN(Cc1ccccc1)C(=S)Nc1ccc2cnccc2c1` [compound 27] was tested. Which IC50 did it give?
**A.** 0.1 to 1 µM

**Q.** Which IC50 does the source give for `NCCN(Cc1cccc(F)c1)C(=S)Nc1ccc2cnccc2c1` [compound 28] here?
**A.** 0.1 to 1 µM

**Q.** For `N#C/N=C(/Nc1ccc2cnccc2c1)N(CCN)Cc1cccc(F)c1` [compound 29], which IC50 is on record?
**A.** 0.01 to 0.1 µM

**Q.** With `N#C/N=C(/Nc1ccc2cnccc2c1)N(CCN)Cc1ccc(F)cc1` [compound 30] as the compound, how does the IC50 read?
**A.** 0.01 to 0.1 µM

**Q.** For `Cc1ccc(CN(CCN)C(=S)Nc2ccc3cnccc3c2)cc1` [compound 32], which IC50 is on record?
**A.** 0.1 to 1 µM

**Q.** For `NCCN(Cc1ccc(Cl)c(F)c1)C(=S)Nc1ccc2cnccc2c1` [compound 33], which IC50 is on record?
**A.** 0.1 to 1 µM

**Q.** `N#C/N=C(\Nc1ccc2cnccc2c1)N(CCN)Cc1ccc(Br)cc1` [compound 34] was tested. Which IC50 did it give?
**A.** 0.01 to 0.1 µM

**Q.** How did the IC50 turn out when `NCCN(Cc1cccc(Cl)c1)C(=S)Nc1ccc2cnccc2c1` [compound 38] was run?
**A.** 0.01 to 0.1 µM
